Source: US7956086B2, “Methods for the formulation and manufacture of artesunic acid for injection” (priority 2006, dated 2011)

How the values were obtained:
[1] = stored under nitrogen @ 25° C., studies at Knoll; cited from earlier work
[2] = in vivo
Excerpt: Patients were given a single dose of 1-4 milligrams per kilogram body weight in the form of an injection through an IV catheter (a tube with a needle attached) once a day for 3 days in a row.

[3] = Storage stability of bulk artesunic acid; format: physicochemical; details: 20 months at 25° C.
Protocol: Six thousand dry-filled vials of formulated artesunate for clinical use have been packaged. One thousand of the vials have been reserved for long-term stability testing under various conditions, including elevated temperatures and humidities, to test the integrity and durability of the packaging system. As packaged for clinical use, 20 ml vials have been dry-filled with 110 mg of ethylene oxide sterilized artesunate, stoppered, and sealed.
The sterilized bulk drug of the invention has been tested and is still undergoing stability studies. […] The stability studies are still ongoing.

Q: Which “stability of bulk artesunic acid” value [1] does the source give for `C[C@H]1[C@H](OC(=O)CCC(=O)O)O[C@@H]2O[C@@]3(C)CC[C@H]4[C@H](C)CC[C@@H]1[C@@]24OO3` (relative stereo) [artesunic acid, butanedioic Acid, [3R-(3α,5a,6,8a,9α,10α,12,12a R*)]-mono(decahydro-3,6,9-trimethyl-3,12-epoxy-12H-pyrano[4,3-j]-1,2-benzodioxepin-10-yl)ester] here?
A: at least two years stability

Q: And the adverse effects [2]?
A: no adverse effects

Q: And the “degradation of sterilized bulk drug on storage” value [3]?
A: no evidence of degradation
